Experimental data published in patent publication US12605455B2, “CAR peptide for improved coronavirus survival” (Vascular Biosciences, priority 2020, dated 2026).
Like-named read-outs stand apart in the source and are kept apart here. Bridge positions count the residues as written; N and C are the ends. Peptide text beside a SMILES is read from it.

Tests used:
[1] = Irwin test in rats; assay type: in vivo
[2] = tested on: hypertensive lungs; details: isolated perfused lung experiments (Toba et al. 2014); cited from earlier work
[3] = Safety pharmacology and TID 10-day rising-dose and multiple-dose tolerance study of CAR in rats; assay type: in vivo
[4] = CAR 3 mg/kg i.v. for 14 days
[5] = Two-month repeat administration of CAR to pigs; assay type: in vivo; details: IV 3 mg/kg
[6] = tested on: SARS-CoV2; assay type: in vivo, K18-hACE2 transgenic mice; details: HCT 0.2 mg/kg/dose iv every 12 hours: free, liposome encapsulated or CAR-liposome
[7] = tested on: SARS-CoV2; assay type: in vivo, K18-hACE2 transgenic mice; details: hydrocortisone 0.2 mg/kg ip every 6 hours, alone or with CAR 8 mg/kg ip
[8] = tested on: CLP sepsis; experiment: Cecal ligation and puncture (2CLP) rat model of sepsis, hydrocortisone with or without CAR; assay type: in vivo, rats
Protocol: At 40 hours, 4 of the 5 rats in the HCT+CAR group survived while none of the rats in either the HCT group nor the sepsis group survived for 40 hours (n=5 in each group) (Log-rank P=0.008).
8-10 week-old male Sprague Dawley rats were exposed to CLP. Rats were randomized (n=5/group) to saline, hydrocortisone (0.2 mg/kg IV), or CAR (3 mg/kg IV)+HCT. Treatments were initiated 12 hours after surgery, and given every 12 hours afterwards until death, for a maximum of 5 days. Rats were treated with fluid resuscitation but not with antibiotics in this model. Survival was highest in the CAR+HCT group (FIG. 6) (Log-rank P=0.008) and the median Ang2/Ang1 ratio was lower in CAR+HCT than the hydrocortisone group (0.60 vs 1.69, p=0.06).

[9] = tested on: SARS-CoV2; assay type: in vivo, K18-hACE2 transgenic mice; details: HCT 0.2 mg/kg/dose via IT installation every 24 hours: free, liposome encapsulated or CAR-liposome encapsulated
[10] = tested on: endothelium and endothelial glycocalyx of kidney, lung and liver; experiment: Ultrastructural analysis (scanning electron microscopy) of endothelium and endothelial glycocalyx after LPS; assay type: in vivo; details: mice 48 hours after LPS; hydrocortisone 0.2 mg/kg with or without CAR
Protocol: Capillaries of the kidney are fenestrated capillaries which have small holes at endothelial cells. The destruction of this structure was 48 hours after LPS injection. Then, the endothelial wall became edematous and there was deposited fibrin on it. Capillaries of the lung are continuous type of capillaries. Although the vascular endothelium of the lung is thinner at the edges of the nucleus, edema occurred and vascular endothelial structure was impaired 48 hours after LPS injection. Capillaries of the liver are sinusoids which have a lot of large […] gap in normal capillaries. 48 hours after LPS administration, these structures have already broken the edematous of the vascular endothelium and deposited fibrin.
The endothelial glycocalyx (GCX) of the apical endothelial surface of each organ can by visualized using scanning electron microscopy (SEM) to assess GCX appearance and structure. GCX was largely denuded in the untreated sepsis group but the GXX damage was attenuated when CAR is co-administered with low-HCT.
Mice were sacrificed at 48 hours after LPS administration, and kidney, lung and liver were obtained to create frozen fracture freeze-dried samples to detect endothelial changes with electron microscopy. The specimens were examined under a scanning electron microscope (S-4500, Hitachi). […]

[11] = tested on: LPS-induced endotoxemia; experiment: Survival after LPS-endotoxemia, hydrocortisone with or without CAR; assay type: in vivo, mice; details: for survival rate 48 hours after LPS: C57BL/6 male mice, LPS 20 mg/kg IP
Protocol: 10-week-old C57BL/6 male mice were given an intraperitoneal (IP) injection of Escherichia coli 055:B5 LPS 20 mg/kg. Mice were injected i.p. with 20 mg/kg lipopolysaccharide (LPS). Five different treatments were initiated: saline only group (Untreated, n=31); CAR peptide-alone administration 20 mg/kg ([…]) (CAR alone, n=20); hydrocortisone 0.2 mg/kg or 10 mg/kg Low-HCT or High-HCT, n=20, 28 respectively); and CAR 20 mg/kg co-administered with hydrocortisone 0.2 mg/kg (Low HCT+CAR, n=20). Hydrocortisone and/or CAR peptide were injected intraperitoneally at 3, 12 and 24 hours after LPS administration.

[12] = tested on: endothelium of lung, liver and kidney; experiment: Scanning electron micrographs of lung, liver and kidney, sivelestat with or without CAR in septic animals; assay type: in vivo
Text: Scanning electron micrographs of lung tissue from control, sivelestat alone, and CAR+sivelestat treated animals. The pulmonary vasculature is shown in the enlargement.
Scanning electron micrographs of liver tissue from control, sivelestat alone, and CAR+sivelestat treated animals. The fenestrated sinusoidal endothelium with clusters of fenestrations, or ‘sieve plates,’ are visible in the control liver vasculature.
Scanning electron micrographs of kidney tissue from control, sivelestat alone, and CAR+sivelestat treated animals. In the enlargement shown of the […] vasculature, the fenestrated glomerular endothelium surrounded by podocyte foot processes (red arrow). […] This is presumably due to activation of neutrophil elastase which leads to proteolytic degradation of critical extracellular matrix proteins. […] The activity of sivelestat's anti-elastase appears to be efficiently boosted by CAR's selective homing to the injured endothelial glycocalyx in the kidney.
(§1) Thus, CAR could potentially adjuvant efficacy of other drugs against viral sepsis, including CAR in combination with sivelstat, as shown at lung (FIG. 9), liver (FIG. 10) and kidney (FIG. 11) samples.

[13] = tested on: LPS model of sepsis; experiment: LPS model of sepsis, survival with sivelestat with or without CAR; assay type: in vivo
Text: as §1

[14] = sivelestat 0.5 mg/kg or sivelestat 0.5 mg/kg + CAR

Q: What does the source list for `C[C@@H]1NC(=O)[C@@H](N)CSSC[C@@H](C(=O)O)NC(=O)[C@H](CC(=O)O)NC(=O)[C@H](CCCCN)NC(=O)[C@H](CC(N)=O)NC(=O)[C@H](CCCCN)NC(=O)[C@H](CO)NC(=O)[C@H](CCCNC(=N)N)NC1=O` [CAR, CARSKNKDC] (H-CARSKNKDC-OH; disulfide 1-9; N-terminus and C-terminus assumed)?
A: adverse effects on behavior and physiological function [1]: no adverse effects; concentration of the co-administered drug in the diseased lung [2]: doubling; mortality, clinical observations, hematology, coagulation, clinical chemistry ([3]; TID 10-day rising-dose and multiple-dose, up to highest dose 20 mg/kg IV): no mortality, adverse clinical observations, and no aberrations in hematology, coagulation or clinical chemistry; adverse effects on vital physiological systems (safety pharmacology) ([3]; up to the highest levels of CAR tested): no adverse effects; Creatinine ([4]; healthy adult Sprague-Dawley rats): 0.45 ± 0.02 mg/dL; ALP ([4]; healthy rats): 170 ± 18 U/L; AST ([4]; healthy rats): 141 ± 31 U/L; BUN ([4]; healthy rats): 17 ± 1 mg/dL; Glucose ([4]; healthy rats): 213 ± 5; Hb ([4]; healthy rats): 12.8 ± 0.2 g/dL; Tbili ([4]; healthy rats): 0.10 ± 0.04 mg/dL; Wbc ([4]; healthy rats): 4.0 ± 0.7 ×1000/μL; impact on blood renal function, hepatic function, hematologic tests and glucose hemostasis ([4]; healthy rats): no impact; immunological effects or signs of toxicity [5]: no immunological effects or signs of toxicity

Q: Which results are given for `C[C@]12CCC(=O)C=C1CC[C@@H]1[C@@H]2[C@@H](O)C[C@@]2(C)[C@H]1CC[C@]2(O)C(=O)CO` [HCT, hydrocortisone]?
A: survival at 7 dpi [6]: some improvements in survival; survival at 7 dpi [7]: some improvements in survival; rats surviving at 40 hours ([8]; 2CLP rats, n=5 in each group, hydrocortisone 0.2 mg/kg IV with or without CAR 3 mg/kg IV every 12 hours from 12 hours after surgery): none; hyperglycemia ([8]; CLP rats): hyperglycemia observed; median Ang2/Ang1 ratio ([8]; CLP rats, p=0.06): 1.69; survival at 7 dpi [9]: some improvements in survival; endothelial ultrastructure of kidney, lung and liver capillaries [10]: no beneficial effect for septic endothelial disorders; survival rate 48 hours after LPS ([11]; hydrocortisone 0.2 mg/kg alone or with CAR 20 mg/kg, IP at 3, 12 and 24 hours): 30%; survival rate 48 hours after LPS ([11]; hydrocortisone 10 mg/kg (High-HCT) IP at 3, 12 and 24 hours): 57%; survival difference versus untreated sepsis 48 hours after LPS ([11]; CAR alone 20 mg/kg, hydrocortisone 0.2 mg/kg (Low-HCT)): no significant survival difference

Q: What does the source list for `CC(C)(C)C(=O)Oc1ccc(S(=O)(=O)Nc2ccccc2C(=O)NCC(=O)O)cc1` [Sivelestat, sivelestat]?
A: glomerular endothelium fenestrations, SEM kidney images [12]: fenestrations are absent and gross tissue damage is apparent; liver sinusoidal endothelium sieve plates, SEM liver images [12]: not able to prevent defenestration of sieve plates; pulmonary arteriole endothelium, SEM lung images [12]: did not prevent degradation of the continuous pulmonary arteriole endothelium; Survival Rate (%) 12 h ([13]; sivelestat 0.5 mg/kg (n=20) or sivelestat 0.5 mg/kg + CAR (n=18)): 100%; Survival Rate (%) 24 h [13, 14]: 85%; Survival Rate (%) 36 h [13, 14]: 60%; Survival Rate (%) 48 h [13, 14]: 50%
